For 42 targets, thermal stability z-score results are on record in the supplement of paper PMC12463676, “Small-molecule dissolution of stress granules by redox modulation benefits ALS models” (Nature Chemical Biology, 2025).

Compound in one experiment: NC(=O)CCCCC1CCSS1 [lipoamide]
Nature of the experiment: thermal stability z-score vs DMSO; higher = more thermally stabilized by treatment. The following applies: HeLa, lipoamide concentration 100 µM. The protocol:
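Cellular thermal proteome profiling in HeLa cells. Cells were treated with 100 µM lipoamide for 1 h, with or without 1 mM arsenate for a further 1 h, then heated to ten temperatures (37-66.3 °C), and soluble protein was quantified by TMT mass spectrometry relative to 0.1% DMSO controls. The thermal stability score (sum of log2 fold changes minus the abundance score) was transformed to a z-score; mean of n = 3 experiments.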

Compound in another experiment: O=[As]([O-])(O)O.[K+] [potassium arsenate]
Described as above. The following applies: HeLa; arsenate concentration 1 mM. The protocol: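 Cellular thermal proteome profiling in HeLa cells treated with 1 mM arsenate for 1 h (DMSO pretreatment), heated to ten temperatures (37-66.3 °C). Soluble protein was quantified by TMT mass spectrometry relative to DMSO controls; the thermal stability score was transformed to a z-score; mean of n = 3 experiments.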

Where [1] appears, read: arsenate co-treatment: 1 mM arsenate 1 h.
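Also: each temperature applied for 3 min, abundance score taken as mean log2 fold change at the two lowest temperatures, z-score obtained by mean subtraction and division by SD.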

Sequence of UniProt Q8WZA9 (Q8WZA9 whole entry): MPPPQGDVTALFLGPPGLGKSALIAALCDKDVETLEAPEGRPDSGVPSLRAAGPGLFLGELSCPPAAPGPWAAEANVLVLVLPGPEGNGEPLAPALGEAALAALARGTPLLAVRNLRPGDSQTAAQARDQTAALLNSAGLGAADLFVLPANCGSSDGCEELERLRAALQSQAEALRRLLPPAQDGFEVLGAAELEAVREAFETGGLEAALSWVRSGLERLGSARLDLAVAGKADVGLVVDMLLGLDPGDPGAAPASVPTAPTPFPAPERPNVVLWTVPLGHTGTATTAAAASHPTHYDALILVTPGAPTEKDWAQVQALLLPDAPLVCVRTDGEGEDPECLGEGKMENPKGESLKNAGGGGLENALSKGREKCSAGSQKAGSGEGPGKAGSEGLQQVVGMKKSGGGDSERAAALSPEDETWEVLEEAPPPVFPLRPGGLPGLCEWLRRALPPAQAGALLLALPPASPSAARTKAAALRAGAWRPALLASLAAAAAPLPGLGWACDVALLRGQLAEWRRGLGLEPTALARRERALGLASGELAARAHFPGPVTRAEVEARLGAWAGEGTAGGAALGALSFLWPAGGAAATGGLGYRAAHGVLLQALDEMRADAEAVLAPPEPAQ
Sequence of UniProt P46736 (P46736 whole entry): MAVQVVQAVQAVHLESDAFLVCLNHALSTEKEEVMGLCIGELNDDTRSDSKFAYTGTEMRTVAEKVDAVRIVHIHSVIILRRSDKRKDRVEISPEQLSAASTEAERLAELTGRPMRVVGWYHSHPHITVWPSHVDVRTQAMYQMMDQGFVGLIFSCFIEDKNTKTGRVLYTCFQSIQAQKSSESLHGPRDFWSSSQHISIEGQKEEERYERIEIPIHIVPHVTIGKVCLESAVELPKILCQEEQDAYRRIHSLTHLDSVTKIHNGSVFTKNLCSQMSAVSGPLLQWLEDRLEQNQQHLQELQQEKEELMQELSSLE
Sequence of UniProt Q9H8M7 (Q9H8M7 whole entry): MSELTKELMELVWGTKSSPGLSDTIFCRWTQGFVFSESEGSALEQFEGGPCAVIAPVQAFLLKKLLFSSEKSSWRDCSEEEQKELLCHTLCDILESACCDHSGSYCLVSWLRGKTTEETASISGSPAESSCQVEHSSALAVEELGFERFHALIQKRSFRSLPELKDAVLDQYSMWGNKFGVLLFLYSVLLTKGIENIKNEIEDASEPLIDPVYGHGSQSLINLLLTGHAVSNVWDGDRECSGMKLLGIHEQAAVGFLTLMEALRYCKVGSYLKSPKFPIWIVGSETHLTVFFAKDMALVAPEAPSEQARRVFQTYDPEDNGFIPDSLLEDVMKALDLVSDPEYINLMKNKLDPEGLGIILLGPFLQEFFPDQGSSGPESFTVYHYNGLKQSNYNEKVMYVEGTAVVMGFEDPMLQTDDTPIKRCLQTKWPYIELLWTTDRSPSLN
Sequence of UniProt Q5T013 (Q5T013 whole entry): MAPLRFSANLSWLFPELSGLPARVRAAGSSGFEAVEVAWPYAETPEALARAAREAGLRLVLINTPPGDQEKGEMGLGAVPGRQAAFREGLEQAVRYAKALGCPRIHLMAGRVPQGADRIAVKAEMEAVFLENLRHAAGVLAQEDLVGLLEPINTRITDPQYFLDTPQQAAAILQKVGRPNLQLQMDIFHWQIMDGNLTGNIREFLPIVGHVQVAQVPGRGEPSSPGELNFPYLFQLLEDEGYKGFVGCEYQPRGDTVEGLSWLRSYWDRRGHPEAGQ
Sequence of UniProt Q14344 (Q14344 whole entry): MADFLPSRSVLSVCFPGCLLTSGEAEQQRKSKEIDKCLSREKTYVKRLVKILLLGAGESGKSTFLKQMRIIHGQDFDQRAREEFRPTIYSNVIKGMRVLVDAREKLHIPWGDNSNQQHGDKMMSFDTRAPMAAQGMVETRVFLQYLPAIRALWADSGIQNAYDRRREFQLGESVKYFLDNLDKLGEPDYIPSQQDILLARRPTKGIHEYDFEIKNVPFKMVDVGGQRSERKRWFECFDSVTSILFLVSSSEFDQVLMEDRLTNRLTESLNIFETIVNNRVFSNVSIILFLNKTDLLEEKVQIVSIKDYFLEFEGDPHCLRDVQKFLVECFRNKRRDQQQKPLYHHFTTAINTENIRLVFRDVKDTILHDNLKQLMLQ
Sequence of UniProt Q9Y6D9 (Q9Y6D9 whole entry): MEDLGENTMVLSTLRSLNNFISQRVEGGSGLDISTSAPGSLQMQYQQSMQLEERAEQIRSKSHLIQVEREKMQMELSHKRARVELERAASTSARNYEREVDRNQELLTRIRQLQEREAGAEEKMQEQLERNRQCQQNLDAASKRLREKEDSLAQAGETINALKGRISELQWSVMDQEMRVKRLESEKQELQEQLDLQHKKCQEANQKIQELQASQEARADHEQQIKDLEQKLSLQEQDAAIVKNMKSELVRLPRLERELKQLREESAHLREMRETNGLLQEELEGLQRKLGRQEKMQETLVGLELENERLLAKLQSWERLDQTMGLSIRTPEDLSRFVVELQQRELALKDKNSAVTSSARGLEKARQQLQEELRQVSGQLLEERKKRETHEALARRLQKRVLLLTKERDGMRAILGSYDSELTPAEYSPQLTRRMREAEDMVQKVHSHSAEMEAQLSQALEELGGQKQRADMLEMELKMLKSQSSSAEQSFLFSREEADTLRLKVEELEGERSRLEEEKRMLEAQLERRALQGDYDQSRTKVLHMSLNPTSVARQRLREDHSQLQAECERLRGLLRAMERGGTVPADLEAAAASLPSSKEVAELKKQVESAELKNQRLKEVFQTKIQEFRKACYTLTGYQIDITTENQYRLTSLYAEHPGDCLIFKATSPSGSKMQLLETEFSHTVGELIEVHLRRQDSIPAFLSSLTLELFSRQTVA
Sequence of UniProt P00533 (P00533 whole entry): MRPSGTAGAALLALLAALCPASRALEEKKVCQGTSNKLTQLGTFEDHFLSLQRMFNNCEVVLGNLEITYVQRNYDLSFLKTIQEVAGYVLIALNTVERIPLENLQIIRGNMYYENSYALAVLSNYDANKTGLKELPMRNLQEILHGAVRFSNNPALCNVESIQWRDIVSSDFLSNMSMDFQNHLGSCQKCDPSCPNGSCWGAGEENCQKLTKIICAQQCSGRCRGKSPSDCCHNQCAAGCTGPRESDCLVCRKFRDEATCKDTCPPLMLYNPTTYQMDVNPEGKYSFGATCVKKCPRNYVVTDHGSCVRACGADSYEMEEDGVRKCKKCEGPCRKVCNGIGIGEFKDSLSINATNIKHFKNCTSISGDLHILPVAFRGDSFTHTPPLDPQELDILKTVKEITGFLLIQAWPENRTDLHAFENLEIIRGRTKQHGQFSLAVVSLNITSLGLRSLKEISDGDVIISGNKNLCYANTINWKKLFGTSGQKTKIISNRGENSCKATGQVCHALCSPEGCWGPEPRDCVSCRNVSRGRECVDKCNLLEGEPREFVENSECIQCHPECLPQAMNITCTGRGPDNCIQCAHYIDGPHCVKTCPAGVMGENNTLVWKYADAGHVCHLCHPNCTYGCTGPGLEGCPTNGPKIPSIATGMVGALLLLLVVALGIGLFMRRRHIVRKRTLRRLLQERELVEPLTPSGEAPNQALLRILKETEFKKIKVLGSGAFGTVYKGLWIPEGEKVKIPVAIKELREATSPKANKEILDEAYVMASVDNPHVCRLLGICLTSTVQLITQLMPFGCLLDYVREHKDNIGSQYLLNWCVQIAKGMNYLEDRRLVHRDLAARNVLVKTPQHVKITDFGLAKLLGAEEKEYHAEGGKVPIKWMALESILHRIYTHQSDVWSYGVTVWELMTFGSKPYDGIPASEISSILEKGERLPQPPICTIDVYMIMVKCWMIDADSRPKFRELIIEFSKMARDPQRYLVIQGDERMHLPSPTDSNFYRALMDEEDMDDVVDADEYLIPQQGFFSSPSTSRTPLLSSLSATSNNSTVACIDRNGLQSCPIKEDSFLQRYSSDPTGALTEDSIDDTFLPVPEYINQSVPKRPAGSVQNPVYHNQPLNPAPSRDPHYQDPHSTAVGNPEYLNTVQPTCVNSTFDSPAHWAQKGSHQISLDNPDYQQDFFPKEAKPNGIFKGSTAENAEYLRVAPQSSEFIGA
Sequence of UniProt O95182 (O95182 whole entry): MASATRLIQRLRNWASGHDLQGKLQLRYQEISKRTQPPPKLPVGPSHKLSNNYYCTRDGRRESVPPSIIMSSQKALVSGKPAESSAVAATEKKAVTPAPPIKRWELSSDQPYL
Sequence of UniProt Q86YM7 (Q86YM7 whole entry): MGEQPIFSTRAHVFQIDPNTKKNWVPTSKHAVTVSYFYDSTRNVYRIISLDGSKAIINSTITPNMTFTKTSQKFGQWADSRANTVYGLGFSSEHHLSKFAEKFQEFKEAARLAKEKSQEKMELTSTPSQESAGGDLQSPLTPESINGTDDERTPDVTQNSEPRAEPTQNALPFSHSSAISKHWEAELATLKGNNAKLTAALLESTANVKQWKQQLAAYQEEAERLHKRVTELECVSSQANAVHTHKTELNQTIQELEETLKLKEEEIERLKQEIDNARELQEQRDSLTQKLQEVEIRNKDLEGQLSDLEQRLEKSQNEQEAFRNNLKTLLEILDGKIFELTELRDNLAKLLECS
Sequence of UniProt Q9HB07 (Q9HB07 whole entry): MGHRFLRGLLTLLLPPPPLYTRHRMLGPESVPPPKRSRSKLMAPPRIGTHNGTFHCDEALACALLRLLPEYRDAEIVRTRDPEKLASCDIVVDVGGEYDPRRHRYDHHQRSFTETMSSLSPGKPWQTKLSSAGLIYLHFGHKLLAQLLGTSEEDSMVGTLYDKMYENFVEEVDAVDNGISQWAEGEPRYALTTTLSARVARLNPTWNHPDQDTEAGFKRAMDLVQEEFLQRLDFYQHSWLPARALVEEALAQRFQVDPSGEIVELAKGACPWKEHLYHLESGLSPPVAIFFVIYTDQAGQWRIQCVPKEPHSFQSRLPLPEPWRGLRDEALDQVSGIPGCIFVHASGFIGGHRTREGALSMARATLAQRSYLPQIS
Sequence of UniProt P22466 (P22466 whole entry): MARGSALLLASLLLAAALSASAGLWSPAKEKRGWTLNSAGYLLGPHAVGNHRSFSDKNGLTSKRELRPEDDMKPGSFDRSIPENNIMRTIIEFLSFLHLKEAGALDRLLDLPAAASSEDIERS

In the case of ZC3H15 (UniProt Q8WU90), the thermal stability z-score with lipoamide (setting [1]) was -0.032; in the experiment with lipoamide (arsenate co-treatment: none), -0.0996; with potassium arsenate, 0.0266.
As for IREB2 (UniProt P48200), the thermal stability z-score with lipoamide (setting [1]) is -0.0142; in the experiment with lipoamide (arsenate co-treatment: none), 0.0771; in the experiment with potassium arsenate, -0.386.
Turning to FTH1 (UniProt P02794), the thermal stability z-score is 0.266 with lipoamide (setting [1]), 0.204 with lipoamide (arsenate co-treatment: none) and -2.18 with potassium arsenate.
As for PCNA (UniProt P12004), the thermal stability z-score in the experiment with lipoamide (setting [1]) was 0.353; with lipoamide (arsenate co-treatment: none), -0.0687; with potassium arsenate, 1.56.
In the case of ROCK2 (UniProt O75116), the thermal stability z-score with lipoamide (setting [1]) is 0.504; with lipoamide (arsenate co-treatment: none), 0.462; in the experiment with potassium arsenate, 0.245.
In the case of EGFR (UniProt P00533), the thermal stability z-score in the experiment with lipoamide (setting [1]) is -1.07; in the experiment with lipoamide (arsenate co-treatment: none) it was -0.989; in the experiment with potassium arsenate, -1.02.
As to MYH9 (UniProt P35579), the thermal stability z-score with lipoamide (setting [1]) came to 0.442; in the experiment with lipoamide (arsenate co-treatment: none), 0.363; in the experiment with potassium arsenate, 0.2.
Turning to POLA1 (UniProt P09884), the thermal stability z-score was -0.387 with lipoamide (setting [1]), 0.167 with lipoamide (arsenate co-treatment: none) and -0.306 with potassium arsenate.
On to WDR12 (UniProt Q9GZL7), for which the thermal stability z-score in the experiment with lipoamide (setting [1]) is 0.771; with lipoamide (arsenate co-treatment: none), 0.222; in the experiment with potassium arsenate, 0.0663.
AP3B1 (UniProt O00203): the values for the thermal stability z-score with lipoamide (setting [1]), with lipoamide (arsenate co-treatment: none) and with potassium arsenate were -0.0343, 0.0807 and 0.404, respectively.
Turning to GAL (UniProt P22466), the values for the thermal stability z-score with lipoamide (setting [1]), with lipoamide (arsenate co-treatment: none) and with potassium arsenate were 0.135, -0.122 and -0.0332, respectively.
Take TMEM38B (UniProt Q9NVV0): the thermal stability z-score is 0.603 with lipoamide (setting [1]), -0.085 with lipoamide (arsenate co-treatment: none) and 0.654 with potassium arsenate.
Consider MRPS12 (UniProt O15235), for which the results for the thermal stability z-score with lipoamide (setting [1]), with lipoamide (arsenate co-treatment: none) and in the experiment with potassium arsenate were -0.367, 0.0698 and 0.233, respectively.
Regarding LNPEP (UniProt Q9UIQ6), the thermal stability z-score in the experiment with lipoamide (setting [1]) was 0.328; with lipoamide (arsenate co-treatment: none), 0.227; with potassium arsenate, 0.249.
On to CIAPIN1 (UniProt Q6FI81), for which the thermal stability z-score is 0.671 in the experiment with lipoamide (setting [1]), 0.397 in the experiment with lipoamide (arsenate co-treatment: none) and 0.186 with potassium arsenate.
For NDUFA7 (UniProt O95182), the thermal stability z-score in the experiment with lipoamide (setting [1]) was 0.276; with lipoamide (arsenate co-treatment: none), 0.141; in the experiment with potassium arsenate it was 0.128.
The corresponding values for ZFP36L2 (UniProt P47974) are -0.198, 0.12 and -0.0646.
With FAM188A (UniProt Q9H8M7), the values for the thermal stability z-score in the experiment with lipoamide (setting [1]), with lipoamide (arsenate co-treatment: none) and in the experiment with potassium arsenate were 0.53, 0.885 and 1.07, respectively.
The corresponding values for CC2D1B (UniProt Q5T0F9) are -0.661, -0.8 and -0.125.
On to ADH5 (UniProt P11766), for which the thermal stability z-score is 1.89 in the experiment with lipoamide (setting [1]), 0.761 with lipoamide (arsenate co-treatment: none) and -1.99 in the experiment with potassium arsenate.
Taken in the same sequence, the figures for HEBP2 (UniProt Q9Y5Z4) were 0.891, 0.694 and 0.0122.
For COLGALT1 (UniProt Q8NBJ5), the thermal stability z-score was -4.85 in the experiment with lipoamide (setting [1]), -4.14 with lipoamide (arsenate co-treatment: none) and 0.633 with potassium arsenate.
As for EIF4A3 (UniProt P38919), the thermal stability z-score in the experiment with lipoamide (setting [1]) was -0.155; with lipoamide (arsenate co-treatment: none) it was 0.154; in the experiment with potassium arsenate, -0.492.
Turning to PEX3 (UniProt P56589), the thermal stability z-score with lipoamide (setting [1]) was -0.415; with lipoamide (arsenate co-treatment: none), -0.151; with potassium arsenate, -0.285.
As for RARS2 (UniProt Q5T160), the thermal stability z-score with lipoamide (setting [1]) was 0.0904; with lipoamide (arsenate co-treatment: none), -0.0472; in the experiment with potassium arsenate, 0.328.
On to IRGQ (UniProt Q8WZA9), for which the figures for the thermal stability z-score with lipoamide (setting [1]), with lipoamide (arsenate co-treatment: none) and in the experiment with potassium arsenate were -0.249, -0.257 and -0.24, respectively.
Take RPL7A (UniProt P62424): the thermal stability z-score was 0.455 in the experiment with lipoamide (setting [1]), 0.197 with lipoamide (arsenate co-treatment: none) and -0.955 with potassium arsenate.
Taken in the same sequence, the figures for ATP11A (UniProt P98196) were -0.441, 0.419 and -0.309.
Take GTF2H4 (UniProt Q92759): the thermal stability z-score worked out at 0.108 with lipoamide (setting [1]), 0.112 in the experiment with lipoamide (arsenate co-treatment: none) and 0.148 in the experiment with potassium arsenate.
For RAP1GDS1 (UniProt P52306), the thermal stability z-score in the experiment with lipoamide (setting [1]) was 0.161; with lipoamide (arsenate co-treatment: none) it was -0.118; with potassium arsenate, 0.353.
The corresponding values for RPS29 (UniProt P62273) are 1.14, 1.17 and -0.415.
On to GNA13 (UniProt Q14344), for which the thermal stability z-score was 0.187 in the experiment with lipoamide (setting [1]), 0.347 with lipoamide (arsenate co-treatment: none) and -0.441 with potassium arsenate.
Consider BRCC3 (UniProt P46736), for which the thermal stability z-score with lipoamide (setting [1]) was -0.0792; in the experiment with lipoamide (arsenate co-treatment: none), 0.172; in the experiment with potassium arsenate, 0.468.
With C12ORF10 (UniProt Q9HB07), the thermal stability z-score was -0.0259 in the experiment with lipoamide (setting [1]), -1.16 with lipoamide (arsenate co-treatment: none) and 0.0961 with potassium arsenate.
For the target FLNB (UniProt O75369), the thermal stability z-score is 0.683 in the experiment with lipoamide (setting [1]), 0.798 with lipoamide (arsenate co-treatment: none) and -0.574 with potassium arsenate.
On to HOMER1 (UniProt Q86YM7), for which the thermal stability z-score in the experiment with lipoamide (setting [1]) amounted to 0.64; in the experiment with lipoamide (arsenate co-treatment: none), 0.353; in the experiment with potassium arsenate, 1.54.
Turning to CTSZ (UniProt Q9UBR2), the thermal stability z-score is -1.02 with lipoamide (setting [1]), -0.748 with lipoamide (arsenate co-treatment: none) and 0.529 with potassium arsenate.
On to ACADM (UniProt P11310), for which the thermal stability z-score with lipoamide (setting [1]) was 0.376; with lipoamide (arsenate co-treatment: none) it was 0.186; in the experiment with potassium arsenate it was -1.07.
For CYP20A1 (UniProt Q6UW02), the thermal stability z-score with lipoamide (setting [1]) stood at 0.107; in the experiment with lipoamide (arsenate co-treatment: none) it was 0.633; with potassium arsenate, 0.0905.
On to MAD1L1 (UniProt Q9Y6D9), for which the thermal stability z-score in the experiment with lipoamide (setting [1]) turned out to be 2.13; with lipoamide (arsenate co-treatment: none) it was 0.887; in the experiment with potassium arsenate, 1.62.
On to HYI (UniProt Q5T013), for which the thermal stability z-score was 1.85 with lipoamide (setting [1]), 0.651 with lipoamide (arsenate co-treatment: none) and 0.524 with potassium arsenate.
On to ARHGAP35 (UniProt Q9NRY4), for which the values for the thermal stability z-score in the experiment with lipoamide (setting [1]), with lipoamide (arsenate co-treatment: none) and in the experiment with potassium arsenate were -0.512, -0.145 and 0.128, respectively.
